Test results published in patent US8258178B2, “Agents for preventing attachment of barnacle consisting of organic solvent extracts of red alga Laurencia sp. and compounds isolated therefrom” (Central Research Institute of Electric Power Industry, priority 2007, dated 2012).
Values after ≈ are worked out from the molar mass of the structure shown. Where two headings read alike, the source gives them in different places.

Columns and labels:
[1] = system: cypris larvae of Amphibalanus amphitrite; assay: whole plant or invertebrate; type: in vivo; conditions: for EC50: Amphibalanus amphitrite, 48 h, read-out: EC50 of attachment•metamorphosis of cypris larvae
Protocol: (§1) Adult samples of Amphibalanus amphitrite collected from Lake Hamanako, Shizuoka-ken in the breeding season (May to November in Hamanakako) were subject to drying stimulus for about 12 hours (drying stimulus refers to taking out barnacles out of the breeding water and let them dry), and then they were put into a water bath, thereby allowing eggs to hatch into nauplius larvae (if the adults are not in a breeding season, they are subject to food satiation breeding for about two weeks at a water temperature of 20° C. to 25° C., and after subjecting to drying stimulus for about 12 hours, they are housed in a water bath to allow eggs to hatch into nauplius larvae). […] At 5th day of breeding, the nauplius larvae metamorphosed into cypris larvae, which were collected using light or the like and refrigerated (4° C.) for two days, and then used for attachment•metamorphosis inhibition tests.
(§2) Into a 24-well multi plate made of polystyrene (Corning, Inc.) was put an ethanol solution in which a methanol extract of red algae laurencia sp. of the present invention or the compound of the present invention was dissolved, and allowed to dry, followed by charging of 2 mL filtered seawater. Six individual cypris larvae of Amphibalanus amphitrite were put into each well and bred at 25° C. for two to five days, and the number of individuals that metamorphosed from cypris larvae into barnacle immatures while attaching to the plate surface, the number of individuals not attached thereto and still swimming as cypris larvae, and the number of dead individuals were counted under a stereoscopic microscope. The tests were conducted using four wells each for a same concentration of the compound of the present invention, and the tests were repeated three or more times. […] Furthermore, the concentration at which the ratio of the number of attaching•metamorphosing individuals to the number of all the subject individuals after 2 days is one-half in comparison with the case not having the compounds of the present invention, was represented by EC50. Concentrations (μg/ml) were represented by the value obtained by dividing the amount of the methanol extract of red algae laurencia sp. (μg) or the amount of the compound (μg) added per well by 2 mL of filtered seawater added per well.

in vivo = type: in vivo; conditions: Amphibalanus amphitrite (barnacle, cypris larvae), in vivo; concentration at which dead individuals after 5 days account for 50% of all individuals; read-out: LC50 (toxicity to larvae)
Protocol: as §1, §2

[2] = Non-Patent Document 7; cited from earlier work
barnacle = conditions: reported in Non-Patent Documents 1 and 2; cited from earlier work
[3] = after 2 days, concentration at which ratio of attaching•metamorphosing individuals is one-half of the case without compound, 25° C., 24-well plate, 2 mL filtered seawater

Compound: CC[C@@H]1[C@@H]2[C@H]3OC(C=C=CBr)C[C@H]3O[C@]2(O)[C@@H](Br)C[C@H]1Br (stereo partly drawn) [Hachijojimallene A]
- EC50 of attachment•metamorphosis of cypris larvae [1, 3]: 0.15 µg/mL
- LC50 (toxicity to larvae) ([1]; concentration at which dead individuals after 5 days account for 50% of all individuals): 9.8 µg/mL (≈ 20.1 µM)

Compound: C#C/C=C/C[C@@H](OC(C)=O)[C@H]1C/C=C\C[C@H](Br)[C@@H](CC)O1 [Laurencin]
- EC50 of attachment•metamorphosis of cypris larvae [1, 3]: 0.23 µg/mL
- toxicity to larvae ([1]; at 100 μg/mL): no toxicity at all

Compound: CC(C)=CCC[C@@](C)(O)[C@@H](O)CC[C@](C)(O)[C@H]1CC[C@H]2O[C@@H]([C@]3(C)CC[C@@H](Br)C(C)(C)O3)CC[C@]2(C)O1 [Magireol A]
- EC50 [1]: 0.3 µg/mL (≈ 0.509 µM)
- LC50 at 5 days (in vivo): 14.4 µg/mL (≈ 24.4 µM)

Compound: CC/C(Br)=C\C=C\[C@@H](O)[C@H](Br)[C@@H]1O[C@@H](C=C=CBr)C[C@@H]1O [Omaezallene]
- EC50 [1, 3]: 0.22 µg/mL
- LC50 at 5 days (in vivo): 3.4 µg/mL (≈ 6.98 µM)

Compound: CC(C)(O)[C@H]1CC[C@](C)([C@@H](O)CC[C@](C)(O)[C@H]2CC[C@H]3O[C@@H]([C@]4(C)CC[C@@H](Br)C(C)(C)O4)CC[C@]3(C)O2)O1 [Thyrsiferol]
- cytotoxicity [2]: known to have cytotoxicity
- EC50 [1]: 0.11 µg/mL (≈ 0.182 µM)
- LC50 at 5 days (in vivo): 2.5 µg/mL (≈ 4.13 µM)

Compound: C=C1C[C@H](O)[C@H](Br)C(C)(C)[C@]12CC=C(C)CC2 [deschloroelatol]
- barnacle attachment inhibitory activity (barnacle): have a barnacle attachment inhibitory activity

Compound: C=C1C[C@H](O)[C@H](Br)C(C)(C)[C@@]12CCC(C)=C(Cl)C2 [elatol]
- barnacle attachment inhibitory activity (barnacle): have a barnacle attachment inhibitory activity

Compound: C=C1[C@@H](C)CC[C@@]1(C)c1cc(Br)c(C)cc1O [isolaurinterol]
- barnacle attachment inhibitory activity (barnacle): possess a barnacle attachment inhibitory activity

Compound: Cc1cc(O)c([C@]2(C)CC[C@@H]3C[C@@]32C)cc1Br [laurinterol]
- barnacle attachment inhibitory activity (barnacle): possess a barnacle attachment inhibitory activity
